experiment: recombinant barcode read abundance after kanamycin selection (control-corrected) (log10(CPM+1)); higher = more efficient recombination; sequences stand for … in AGTGCAGAGAAAATCGGCCAGTTTTCTCTGCCTGCAGTCCGCATGCCGT…AGATTTATGCAGCGGACTGCCTTTCTCCCAAAGTGATAAACCGGACAGTATCATGGACCGGTTTTCCCGGTAATCCGTATTTGCAAGGTTGGTTTCACT; site = the 11-nt target
Outline: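 The screen was pooled in E. coli and paired targets with IS621 bridge RNA target-binding loops. Recombination efficiency is taken from barcode counts per million at recombinant junctions, averaged and adjusted against the control. Values, in the form log10(CPM+1), come from duplicate plating on chloramphenicol/ampicillin LB agar or on chloramphenicol/ampicillin/kanamycin with 0.1 mM IPTG.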
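Further: IS621 recombinase and bridge RNA in Escherichia coli cells.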

Point of comparison: “CCAAGGACTTGGGTTCTAACCTGTTGCCT (site CCATGGACTAG)”, “recombinant barcode read abundance (log10)” value 0.0382. Against it:
- CCAAGCCCTTGGGTTCTAACCTGTTGCCT (site CCAAGCACTAG) — within 0.2 log units, 0.202
- CCAAGCCCTTGGGTTCTAACCTGTTGCCT (site CCAAGCCCTAG) — within 0.2 log units, 0.142
- CCAAGCCCTTGGGTTCTAACCTGTTGCCT (site CCAAGCGCTAG) — within 0.2 log units, 0.0593
- CCAAGCCCTTGGGTTCTAACCTGTTGCCT (site CCAAGCTCTAG) — within 0.2 log units, 0.0835
- CCAAGGACTTGGGTTCTAACCTGTTGCCT (site CCAAGGACTAG) — higher, 0.348
- CCAAGGACTTGGGTTCTAACCTGTTGCCT (site CCACGGACTAG) — within 0.2 log units, 0.0394
- CCAAGGACTTGGGTTCTAACCTGTTGCCT (site CCAGGGACTAG) — higher, 0.47
- CCAAGGGCTTGGGTTCTAACCTGTTGCTG (site CCAAGGGCTCA) — higher, 1.31
- CCAAGGGCTTGGGTTCTAACCTGTTGCTG (site CCAAGGGCTCC) — within 0.2 log units, 0.136
- CCAAGGGCTTGGGTTCTAACCTGTTGCTG (site CCAAGGGCTCG) — within 0.2 log units, 0.0611
- CCAAGGGCTTGGGTTCTAACCTGTTGCTG (site CCAAGGGCTCT) — higher, 0.727
- CCACAGTCTTGGGTTCTAACCTGTTGCCT (site CCACAGTCTAG) — higher, 1.44
- CCACAGTCTTGGGTTCTAACCTGTTGCCT (site CCACCGTCTAG) — within 0.2 log units, 0.117
- CCACAGTCTTGGGTTCTAACCTGTTGCCT (site CCACGGTCTAG) — within 0.2 log units, 0.169
- CCACAGTCTTGGGTTCTAACCTGTTGCCT (site CCACTGTCTAG) — within 0.2 log units, 0.0628
- CCACGAGCTTGGGTTCTAACCTGTTGCGG (site CCACGAGCTCC) — higher, 1.4
- CCACGAGCTTGGGTTCTAACCTGTTGCGG (site CGACGAGCTCC) — within 0.2 log units, 0.148
- CCACGGCCTTGGGTTCTAACCTGTTGCAT (site CCACGGCCTAT) — higher, 1.21
- CCACGGCCTTGGGTTCTAACCTGTTGCAT (site CCTCGGCCTAT) — within 0.2 log units, 0
- CCACTACCTTGGGTTCTAACCTGTTGCCT (site CCACTACCTAG) — higher, 0.253
- CCACTACCTTGGGTTCTAACCTGTTGCCT (site CCACTCCCTAG) — within 0.2 log units, 0.0236
- CCACTACCTTGGGTTCTAACCTGTTGCCT (site CCACTGCCTAG) — within 0.2 log units, 0.0373
- CCACTACCTTGGGTTCTAACCTGTTGCCT (site CCACTTCCTAG) — within 0.2 log units, 0.0936
- CCACTGTCTTGGGTTCTAACCTGTTGCCT (site CCACAGTCTAG) — higher, 0.806
- CCACTGTCTTGGGTTCTAACCTGTTGCCT (site CCACCGTCTAG) — within 0.2 log units, 0.0386
- CCACTGTCTTGGGTTCTAACCTGTTGCCT (site CCACGGTCTAG) — within 0.2 log units, 0.0729
- CCACTGTCTTGGGTTCTAACCTGTTGCCT (site CCACTGTCTAG) — higher, 0.632
- CCAGAGTCTTGGGTTCTAACCTGTTGCCA (site CCAGAGTCTCG) — within 0.2 log units, 0
- CCAGAGTCTTGGGTTCTAACCTGTTGCCA (site CCAGAGTCTTG) — higher, 1.22
- CCAGCAGCTTGGGTTCTAACCTGTTGCCT (site CCAGAAGCTAG) — within 0.2 log units, 0.0762
- CCAGCAGCTTGGGTTCTAACCTGTTGCCT (site CCAGCAGCTAG) — higher, 0.675
- CCAGCAGCTTGGGTTCTAACCTGTTGCCT (site CCAGGAGCTAG) — within 0.2 log units, 0.0858
- CCAGCAGCTTGGGTTCTAACCTGTTGCCT (site CCAGTAGCTAG) — higher, 0.76
- CCAGGTCCTTGGGTTCTAACCTGTTGCGT (site CCAGGTCCTAC) — higher, 2.45
- CCAGGTCCTTGGGTTCTAACCTGTTGCGT (site CCAGGTCCTAT) — higher, 1.81
- CCATACGCTTGGGTTCTAACCTGTTGCCT (site CCATACGCTAG) — within 0.2 log units, 0.178
- CCATACGCTTGGGTTCTAACCTGTTGCCT (site CGAGACGCTAG) — within 0.2 log units, 0.189
- CCATCAACTTGGGTTCTAACCTGTTGCCT (site CCATCAACTAG) — within 0.2 log units, 0.0699
- CCATCAACTTGGGTTCTAACCTGTTGCCT (site CCATGAACTTG) — within 0.2 log units, 0.0637
- CCATCTCCTTGGGTTCTAACCTGTTGCCT (site ACATCTCCTAG) — within 0.2 log units, 0.0982
- CCATCTCCTTGGGTTCTAACCTGTTGCCT (site CCATCTCCTAG) — higher, 0.492
- CCATCTCCTTGGGTTCTAACCTGTTGCCT (site GCATCTCCTAG) — within 0.2 log units, 0.127
